Assays:
[1] = Skin permeation across hairless mouse skin (horizontal diffusion cell); type: in vitro ADME
Procedure: (§1) The skin permeation of KMD 3213 was also evaluated on hairless mouse skin and human skin. Human skin penetration assays were performed as described by Tanojo et al. in Journal of Controlled Release 45 (1997), 41-47. The concentration of KMD 3213 was measured by HPLC with a Symetry Shield RP-8, 3.9*150 mm 5 μm column; T=35° C.; eluent: water/acetonitrile/trifluoracetic acid 800/200/1 (v/v/v); dectetion UV at 225 nm; flux rate 1.5 ml/min; injection volume: 100 μl at 23° C.
The flux measurements on hairless mouse skin were conducted using a TTS area of 2.55 cm^2 fixed on mouse abdominal and back skin in a horizontal diffusion cell. Immediately thereafter the acceptor chamber of the cell was filled with phosphate buffer solution (0.066 molar) previously adjusted to 32±0.5° C. and pH 6.2, in an air-bubble free state, and the release medium thermostatted to 32±0.5° C. At the time of sampling (after 3, 6, 24 and 48 hours) the release medium is exchanged with fresh medium thermostatted at 32±0.5° C. KMD 3213 was measured with HPLC as explained above.

[2] = molecular target: T1, α1a-receptor (Homo sapiens, UniProt P35348); conditions: Murata et al., Br. J. Pharmacol. (1999) 127, 19-26; cited from earlier work
T1 sequence (P35348 1-466): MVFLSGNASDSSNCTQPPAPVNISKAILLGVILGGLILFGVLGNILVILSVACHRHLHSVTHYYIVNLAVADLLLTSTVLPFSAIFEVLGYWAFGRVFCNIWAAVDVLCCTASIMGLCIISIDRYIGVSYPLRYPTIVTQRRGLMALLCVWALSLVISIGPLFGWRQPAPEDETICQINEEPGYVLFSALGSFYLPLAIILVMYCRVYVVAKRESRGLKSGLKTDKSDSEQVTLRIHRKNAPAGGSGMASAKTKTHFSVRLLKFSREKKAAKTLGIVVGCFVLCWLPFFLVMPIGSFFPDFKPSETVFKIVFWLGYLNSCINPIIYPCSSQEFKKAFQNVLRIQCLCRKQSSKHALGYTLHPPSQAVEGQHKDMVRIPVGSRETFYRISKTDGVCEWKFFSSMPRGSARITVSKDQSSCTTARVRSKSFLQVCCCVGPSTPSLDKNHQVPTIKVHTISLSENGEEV

[3] = Skin permeation across human skin (in vitro penetration assay); type: in vitro ADME
Procedure: as §1

C[C@H](Cc1cc2c(c(C(N)=O)c1)N(CCCO)CC2)NCCOc1ccccc1OCC(F)(F)F [KMD 3213, (-)-(R)-1-(3-hydroxypropyl)-5-[2-[[2-[2-(2,2,2-trifluoroethoxy)phenoxy]ethyl]amino]propyl]indoline-7-carboxamide]
steady state skin permeation rate on hairless mouse skin ([1]; hairless mouse skin, TTS area 2.55 cm^2, phosphate buffer pH 6.2, 32°C): approximately 2.7 mg/20 cm^2 per day | steady state flux rate through mouse skin ([1]; mouse skin, from the devices of the invention): 2.7 mg/day | α-adrenoceptor subtype specificity [2]: binding specifically to the α1a-receptor | steady state flux rate on human skin [3]: 2.9 mg/20 cm^2 per day

From patent US20050226919A1, “Device for transdermal administration for the treatment of urinary tract disorders” (priority 2001, published 2005)
